Measurements from ChEMBL document CHEMBL5223094, “Recent advancements in chromone as a privileged scaffold towards the development of small molecules for neurodegenerative therapeutics” (RSC Med Chem, 2022).
pIC50: −log10 of the molar value. One block for each molecule: values may come before it.

Legend:
Acetylcholinesterase [1] = target: T1, Acetylcholinesterase (Homo sapiens, UniProt P22303); assay: Inhibition of AchE (unknown origin) using acetylthiocholine iodide as substrate preincubated for 15 mins followed by substrate addition and measured upto 4 mins by Ellman's spectrophotometric method
[2] = target: T2, Amine oxidase [flavin-containing] B (Homo sapiens, UniProt P27338); assay: Inhibition of human MAO-B assessed as recovery of enzyme activity by dialysis method; parameters: scale not given: the % may be the effect or the level left
T2 sequence (P27338 whole entry): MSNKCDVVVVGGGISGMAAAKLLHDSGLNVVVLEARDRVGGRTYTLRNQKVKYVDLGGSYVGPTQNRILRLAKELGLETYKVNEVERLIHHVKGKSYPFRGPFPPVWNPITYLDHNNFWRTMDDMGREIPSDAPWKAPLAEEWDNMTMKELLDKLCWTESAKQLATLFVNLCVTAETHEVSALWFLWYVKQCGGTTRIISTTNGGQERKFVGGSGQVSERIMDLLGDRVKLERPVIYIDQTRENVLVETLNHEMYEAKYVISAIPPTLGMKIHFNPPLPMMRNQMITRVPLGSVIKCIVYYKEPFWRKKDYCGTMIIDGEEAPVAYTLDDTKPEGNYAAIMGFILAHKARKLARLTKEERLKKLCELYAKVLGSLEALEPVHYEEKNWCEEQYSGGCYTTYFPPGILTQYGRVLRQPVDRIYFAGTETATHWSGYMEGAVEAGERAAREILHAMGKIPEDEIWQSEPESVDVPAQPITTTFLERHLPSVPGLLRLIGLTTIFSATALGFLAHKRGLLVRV

[3] = target: T2, Amine oxidase [flavin-containing] B; assay: Inhibition of human MAO-B using tyramine as substrate preincubated for 10 mins followed by substrate addition and measured after 30 mins by fluorometric method
[4] = target: T3, Amine oxidase [flavin-containing] A (Homo sapiens, UniProt P21397); assay: Inhibition of human MAO-A using tyramine as substrate preincubated for 10 mins followed by substrate addition and measured after 30 mins by fluorometric method
T3 sequence (P21397 whole entry): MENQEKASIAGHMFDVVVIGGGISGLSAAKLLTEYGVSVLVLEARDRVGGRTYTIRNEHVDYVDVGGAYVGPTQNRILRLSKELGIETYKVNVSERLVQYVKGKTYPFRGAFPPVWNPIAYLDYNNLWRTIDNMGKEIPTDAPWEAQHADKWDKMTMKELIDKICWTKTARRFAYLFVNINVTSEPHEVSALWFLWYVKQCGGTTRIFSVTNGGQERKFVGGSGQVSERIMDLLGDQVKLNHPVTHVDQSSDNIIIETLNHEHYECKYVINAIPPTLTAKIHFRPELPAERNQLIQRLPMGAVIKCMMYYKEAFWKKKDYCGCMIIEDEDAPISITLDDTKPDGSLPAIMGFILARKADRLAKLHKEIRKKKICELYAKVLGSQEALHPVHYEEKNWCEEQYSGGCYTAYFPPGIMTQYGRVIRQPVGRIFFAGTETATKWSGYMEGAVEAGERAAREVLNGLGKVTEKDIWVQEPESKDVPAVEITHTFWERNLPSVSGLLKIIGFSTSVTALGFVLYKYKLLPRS

[5] = target: T2, Amine oxidase [flavin-containing] B; assay: Inhibition of recombinant human MAO-B using tyramine as substrate preincubated for 30 mins followed by substrate addition and measured after 30 mins by amplex red reagent based fluorometric method
[6] = target: T3, Amine oxidase [flavin-containing] A; assay: Inhibition of recombinant human MAO-A using tyramine as substrate preincubated for 30 mins followed by substrate addition and measured after 30 mins by amplex red reagent based fluorometric method
[7] = target: T2, Amine oxidase [flavin-containing] B; assay: Inhibition of human MAO-B using kynuramine as substrate preincubated for 5 mins followed by substrate addition and measured after 30 mins by spectroscopic analysis
[8] = Antioxidant activity assessed as trolox equivalent of ORAC radical scavenging activity incubated for 15 mins by ORAC-fluorescein assay; assay type: functional
Cholinesterase = Cholinesterase (Equus caballus, UniProt P81908); assay: Inhibition of equine serum BuchE using butyrylthiocholine iodide as substrate preincubated for 10 mins followed by substrate addition and measured after 20 mins by DTNB based Ellman's method
[9] = target: T3, Amine oxidase [flavin-containing] A; assay: Inhibition of human MAO-A using kynuramine as substrate preincubated for 5 mins followed by substrate addition and measured after 30 mins by spectroscopic analysis
Acetylcholinesterase [10] = target: T1, Acetylcholinesterase; assay: Inhibition of human AchE expressed in human HEK293 cells using acetylthiocholine as substrate preincubated for 10 mins followed by substrate addition and measured after 5 to 8 mins by DTNB based Ellman's spectrophotometric method; assay type: cell-based
Acetylcholinesterase [11] = target: T1, Acetylcholinesterase; assay: Inhibition of recombinant human AchE using acetylthiocholine iodide as substrate and measured upto 2 mins by Ellman's method
[12] = target: Amyloid-beta precursor protein (Homo sapiens) (UniProt P05067); assay: Inhibition of Amyloid beta (1 to 42) (unknown origin) self aggregation and at 20 uM and measured upto 24 hrs by ThT-based fluorimetric assay
Acetylcholinesterase [13] = target: Acetylcholinesterase (Electrophorus electricus, UniProt O42275); assay: Inhibition of electric eel AChE using acetylthiocholine iodide as substrate preincubated for 5 mins followed by substrate addition and measured upto 7.5 mins by Ellman's method
Sequence of Acetylcholinesterase (Electrophorus electricus, UniProt O42275) (O42275 whole entry): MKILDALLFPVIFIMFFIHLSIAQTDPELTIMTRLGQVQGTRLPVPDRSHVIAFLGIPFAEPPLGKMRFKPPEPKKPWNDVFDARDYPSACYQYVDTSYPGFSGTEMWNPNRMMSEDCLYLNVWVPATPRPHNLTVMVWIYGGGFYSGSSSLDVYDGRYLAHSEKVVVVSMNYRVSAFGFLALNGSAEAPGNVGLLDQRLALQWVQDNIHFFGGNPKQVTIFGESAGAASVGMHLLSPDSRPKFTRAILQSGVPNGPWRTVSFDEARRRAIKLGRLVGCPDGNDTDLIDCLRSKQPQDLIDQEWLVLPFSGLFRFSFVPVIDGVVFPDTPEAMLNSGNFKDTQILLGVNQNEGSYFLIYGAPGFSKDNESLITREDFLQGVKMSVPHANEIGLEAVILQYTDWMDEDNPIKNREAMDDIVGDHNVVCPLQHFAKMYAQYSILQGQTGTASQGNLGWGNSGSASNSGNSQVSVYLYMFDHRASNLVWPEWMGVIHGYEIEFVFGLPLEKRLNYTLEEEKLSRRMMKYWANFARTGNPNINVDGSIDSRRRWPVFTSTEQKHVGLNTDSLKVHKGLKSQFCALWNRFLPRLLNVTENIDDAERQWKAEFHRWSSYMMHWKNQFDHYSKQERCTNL

T1 sequence (P22303 whole entry): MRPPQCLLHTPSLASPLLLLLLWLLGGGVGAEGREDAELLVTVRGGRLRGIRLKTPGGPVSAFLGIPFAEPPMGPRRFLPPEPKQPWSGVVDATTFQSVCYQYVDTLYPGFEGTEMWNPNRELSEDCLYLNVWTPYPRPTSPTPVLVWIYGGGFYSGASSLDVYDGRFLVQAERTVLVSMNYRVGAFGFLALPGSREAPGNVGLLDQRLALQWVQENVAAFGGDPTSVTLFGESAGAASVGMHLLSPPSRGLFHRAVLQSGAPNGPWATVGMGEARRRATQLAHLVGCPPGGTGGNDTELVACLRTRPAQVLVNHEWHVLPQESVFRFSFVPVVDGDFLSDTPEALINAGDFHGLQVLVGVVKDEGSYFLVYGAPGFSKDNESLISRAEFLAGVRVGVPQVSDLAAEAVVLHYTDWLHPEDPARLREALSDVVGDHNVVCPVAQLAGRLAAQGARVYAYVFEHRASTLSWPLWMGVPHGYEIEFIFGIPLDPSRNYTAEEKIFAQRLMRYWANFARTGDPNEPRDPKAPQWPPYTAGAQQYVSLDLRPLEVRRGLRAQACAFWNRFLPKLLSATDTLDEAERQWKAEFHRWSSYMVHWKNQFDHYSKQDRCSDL
Sequence of Amyloid-beta precursor protein (Homo sapiens) (P05067 whole entry): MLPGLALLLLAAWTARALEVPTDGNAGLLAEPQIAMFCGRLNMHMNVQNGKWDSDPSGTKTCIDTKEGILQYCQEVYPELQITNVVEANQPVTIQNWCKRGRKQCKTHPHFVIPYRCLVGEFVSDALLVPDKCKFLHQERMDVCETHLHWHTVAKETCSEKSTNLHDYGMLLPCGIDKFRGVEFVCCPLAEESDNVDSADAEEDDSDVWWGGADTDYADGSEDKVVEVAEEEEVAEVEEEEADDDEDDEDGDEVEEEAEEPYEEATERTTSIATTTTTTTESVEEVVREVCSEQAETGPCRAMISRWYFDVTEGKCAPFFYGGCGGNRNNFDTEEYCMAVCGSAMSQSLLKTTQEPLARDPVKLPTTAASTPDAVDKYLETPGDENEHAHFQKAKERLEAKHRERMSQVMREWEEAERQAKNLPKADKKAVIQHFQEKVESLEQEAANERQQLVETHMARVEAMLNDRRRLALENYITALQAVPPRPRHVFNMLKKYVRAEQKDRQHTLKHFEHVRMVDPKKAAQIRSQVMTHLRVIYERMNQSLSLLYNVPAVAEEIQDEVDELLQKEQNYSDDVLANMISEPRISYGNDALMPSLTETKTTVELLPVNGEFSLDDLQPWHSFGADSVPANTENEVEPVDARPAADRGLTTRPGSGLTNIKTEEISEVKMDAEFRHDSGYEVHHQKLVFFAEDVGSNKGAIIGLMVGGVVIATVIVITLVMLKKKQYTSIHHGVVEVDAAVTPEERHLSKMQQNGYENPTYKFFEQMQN
Sequence of Cholinesterase (P81908 whole entry): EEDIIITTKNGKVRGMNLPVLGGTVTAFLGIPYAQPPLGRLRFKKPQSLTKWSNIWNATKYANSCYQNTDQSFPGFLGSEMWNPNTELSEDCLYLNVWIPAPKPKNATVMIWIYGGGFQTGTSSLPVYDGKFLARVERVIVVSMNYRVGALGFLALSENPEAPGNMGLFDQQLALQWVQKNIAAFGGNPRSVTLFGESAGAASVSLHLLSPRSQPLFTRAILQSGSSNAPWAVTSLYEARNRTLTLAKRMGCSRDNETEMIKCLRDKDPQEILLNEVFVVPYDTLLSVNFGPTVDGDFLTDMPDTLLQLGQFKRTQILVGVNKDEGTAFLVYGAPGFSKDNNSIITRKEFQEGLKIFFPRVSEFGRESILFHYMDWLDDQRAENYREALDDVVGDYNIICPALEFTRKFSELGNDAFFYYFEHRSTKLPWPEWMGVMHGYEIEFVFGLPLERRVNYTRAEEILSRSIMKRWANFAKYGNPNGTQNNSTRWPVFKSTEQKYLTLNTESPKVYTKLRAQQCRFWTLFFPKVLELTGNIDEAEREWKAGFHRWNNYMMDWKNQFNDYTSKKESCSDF

Compound: CCOP(=O)(OCC)C(NCCc1ccc(OC)cc1)c1coc2ccccc2c1=O (centres undefined)
pIC50 (Acetylcholinesterase [1]): 7.00

Activity [2]: 70% | pIC50 [3]: 7.00 | pIC50 [4]: 5.40
Compound: Cc1ccc(NC(=O)c2c(OCc3ccccc3)ccc3c(=O)c(C)c(C)oc23)cc1

pIC50 [5]: 5.00 | pIC50 [6]: 4.72
Compound: O=C(OCc1ccc(Cl)cc1)c1coc2ccccc2c1=O

Compound: COc1ccc2[nH]cc(CCNC(=O)CN(CCCCC3CCN(Cc4ccccc4)CC3)C(=O)c3cc(=O)c4ccccc4o3)c2c1
pIC50 [7]: 4.68 | Activity [8]: 3.04 equiv | pIC50 (Cholinesterase): 7.92 | pIC50 [9]: 5.52 | pIC50 (Acetylcholinesterase [10]): 5.70

Compound: COc1ccc2c(=O)cc(C(=O)NCCN3CCCCC3)oc2c1
pIC50 (Acetylcholinesterase [11]): 7.05

Compound: Cc1ccc(C#CCOc2ccccc2/C=C/c2cc(=O)c3ccccc3o2)cc1
inhibition [12]: 66% | pIC50 (Acetylcholinesterase [13]): 5.52
